Measurements from US20050255568A1, “Methods and compositions for amino acid production” (priority 2003, published 2005).

What was measured:
[1] = biological target: T1, O-Acetylhomoserine sulfhydrylase (MetY) (Corynebacterium glutamicum, UniProt Q79VI4); conditions: cited from earlier work
T1 sequence (Q79VI4 1-437): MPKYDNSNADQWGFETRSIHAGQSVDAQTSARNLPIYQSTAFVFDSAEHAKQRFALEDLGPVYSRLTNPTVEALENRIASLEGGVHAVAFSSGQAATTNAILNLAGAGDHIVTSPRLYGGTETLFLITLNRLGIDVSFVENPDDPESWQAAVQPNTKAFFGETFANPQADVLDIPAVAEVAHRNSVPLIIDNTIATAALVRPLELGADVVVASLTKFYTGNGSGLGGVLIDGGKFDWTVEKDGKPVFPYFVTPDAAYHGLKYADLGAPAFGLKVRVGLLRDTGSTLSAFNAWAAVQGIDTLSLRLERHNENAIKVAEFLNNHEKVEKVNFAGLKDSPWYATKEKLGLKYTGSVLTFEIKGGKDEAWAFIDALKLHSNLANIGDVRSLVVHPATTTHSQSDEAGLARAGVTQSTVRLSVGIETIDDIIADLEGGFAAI

C. glutamicum MetA = biological target: T2, C. glutamicum MetA (Corynebacterium glutamicum, UniProt O68640); assay type: biochemical
T2 construct: crude protein extracts derived from C. glutamicum strains MA-442 and MA-449 which contain both endogenous and episomal C. glutamicum MetA and MetY genes; expressed in transfected cells; host or cells: C. glutamicum MA-442 (MA-428 derivative of ATCC 13032) carrying episomal plasmid MB-4135 (lacIQ-trcRBS, C. glutamicum metA-RBS-metY, both wild type); crude extract
T2 sequence (O68640 1-377): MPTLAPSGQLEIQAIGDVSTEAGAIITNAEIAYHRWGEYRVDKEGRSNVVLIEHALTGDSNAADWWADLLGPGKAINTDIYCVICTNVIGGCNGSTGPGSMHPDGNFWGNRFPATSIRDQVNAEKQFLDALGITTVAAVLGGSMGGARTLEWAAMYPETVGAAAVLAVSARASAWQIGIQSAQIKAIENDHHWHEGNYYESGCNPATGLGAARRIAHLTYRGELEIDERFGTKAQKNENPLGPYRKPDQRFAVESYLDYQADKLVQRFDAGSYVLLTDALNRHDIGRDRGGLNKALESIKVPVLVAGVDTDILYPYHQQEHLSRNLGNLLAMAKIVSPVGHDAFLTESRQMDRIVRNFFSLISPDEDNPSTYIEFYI
Experimental: MetA activity in C. glutamicum expressing endogenous and episomal metA genes was determined. MetA activity was assayed in crude protein extracts using a protocol described by Kredich and Tomkins (J. Biol. Chem.241(21):4955-4965, 1966). […] Briefly, 1 μg of protein extract was added to a microtiter plate. Reaction mix (250 μl; 100 mM tris-HCl pH 7.5, 2mM 5,5′-Dithiobis(2-nitrobenzoic acid) (DTN), 2 mM sodium EDTA, 2 mM acetyl CoA, 2 mM homoserine) was added to each well of the microtiter plate. In the course of the reactions, MetA activity liberates CoA from acetyl-CoA. A disulfide interchange occurs between the CoA and DTN to produce thionitrobenzoic acid. The production of thionitrobenzoic acid is followed spectrophotometrically. Absorbance at 412 nm was measured every 5 minutes over a period of 30 minutes. A well without protein extract was included as a control. […] Inhibitors were added directly to the reaction mix before it was added to the protein extract. […] Experiments were performed in the presence and absence of IPTG that induces expression of the plasmid borne MetA and MetY genes.

SMILES | MetY enzyme activity (in words) [1] | MetA activity of MA-442 extracts in the presence of S-AM (C. glutamicum MetA; 0.2 mM S-AM) | reduction in MetY enzyme activity ([1]; 0.5 mM methionine, combined allosteric regulation and repression) [%] | MetA activity of MA-442 extracts in the presence of methionine (C. glutamicum MetA; 5 mM methionine)
CC(=O)OC[C@H](N)C(=O)O [O-acetylserine] | inhibited | – | – | –
C[S+](CC[C@H](N)C(=O)[O-])C[C@H]1O[C@@H](n2cnc3c(N)ncnc32)[C@H](O)[C@@H]1O (stereo partly drawn) [S-AM, S-adenosyl methionine] | – | reduced | – | –
N[C@@H](CCO)C(=O)O [homoserine] | inhibited | – | – | –
CSCC[C@H](N)C(=O)O [methionine] | inhibited | – | 99 | reduced
